Key:
[1] = system: loss of memory induced by electric shock; assay: Nootropa activity: protection from memory loss induced by electric shock, aquatic labyrinth (number of errors); format: in vivo, rat; conditions: rats
Method: Tests were carried out on rats using the technique estimating the loss of memory induced by electric shock, the loss of memory being determined as related to the number of errors made in seeking the outlet from an acquatic labyrinth (Giurgea C. J. Pharmacol (Paris) 3, 1, 17, *1972).

[2] = system: learning in the acquatic labyrinth; assay: Learning activity: learning in the acquatic labyrinth; format: in vivo
[3] = system: learning in the conditioning cage; assay: Learning activity: conditioning cage (electric shock avoidance); format: in vivo
[4] = system: desperation behavior in mice; assay: Anti-depressant activity: desperation behavior in mice (Porsalt); format: in vivo, mouse
Method: This activity was evaluated by the method of examining the desperation behavior in mice (Porsalt, T. D., Arch. Int Pharmacodyn 229, 327 (1977).
A state of despair was induced by placing the animal in a cylinder containing water, and from which escape was impossible, the animal then finding itself obliged to treadmill continually. After a period of vigorous activity, the mouse assumes a characteristic immobile posture, which behavior is capable of reduction by the use of various types of pharmaceutical anti-depressants.

[5] = system: cataleptic condition in rats, induced by fluphenazine; assay: Anti-cataleptic activity: Morpurgo test, antagonism of fluphenazine-induced catalepsy; format: in vivo, rat
Excerpt: This activity was the subject of Morpurgo tests (Arch. Int. Pharmacodyn, 137, 84 (1962), based on antagonizing the cataleptic condition in rats, induced by fluphenazine.

[6] = Toxicity, Irwin or "screening" multi-dimensional test; format: in vivo
[7] = LD50 in the rat; conditions: in vivo
[8] = LD50 in the mouse; conditions: in vivo
[9] = statement covers acquatic labyrinth and conditioning cage tests
[10] = ip, i.p. (intraperitoneal route)

O=C(COc1ccc(Cl)cc1)OCCNC12CC3CC(CC(C3)C1)C2 [Compound I, p-chlorophenoxyacetate of 1-aminoadamantine-2-ethanol]
Nootropa activity, in words ([1]; loss of memory by electric shock): notably active
Protection from memory loss due to electric shock (number of errors) ([1]; number of errors in acquatic labyrinth, p < 0.01): 46.5%
Decrease with respect to the control in the errors made in the acquatic labrinth (5th day) ([2]; 5th day, vs control, p < 0.01): 51.6%
Learning facility in the acquatic labyrinth, in words [2, 9]: increased learning facility
Learning facility in the conditioning cage, in words [3, 9]: increased learning facility
Increase with respect to the control in the conditioning cage (learning facility) ([3]; vs control, p < 0.001): 14.4%
Anti-depressant effects, in words ([4]; desperation behavior): moderate anti-depressant effects
Protection with respect to the control (anti-depressant activity) ([4]; vs control, p < 0.001): 45.9%
Reduction of the cataleptic activity of fluphenazine, in words [5]: slightly reduced the cataleptic activity of the fluphenazine
Toxicity: effects of non-toxic doses ([6]; non-toxic doses): no evidence as to effects of non-toxic doses
Toxicity: effects of toxic doses ([6]; toxic doses): death accompanied by trembling and clonic convulsions
LD50 [7, 10]: 360 mg/kg
LD50 ([7]; p.o. (oral route)): > 4000 mg/kg
LD50 [8, 10]: 415 mg/kg
LD50 ([8]; p.o. (oral route)): > 4000 mg/kg

— patent publication US4476319A, “P-Chlorophenoxyacetic acid derivative, its method of preparation, the pharmaceutical compositions containing it and its use in medicine” (Sociedad Espanola de Especialidades Farmaco-Terapeuticas …, priority 1981, dated 1984)
